Laboratory results reported in ChEMBL document CHEMBL4627302, “Design, synthesis and anticancer activities of novel dual poly(ADP-ribose) polymerase-1/histone deacetylase-1 inhibitors” (Bioorg Med Chem Lett, 2020).
pIC50: −log10 of the molar value. Active and inactive are the calls of the source. No cut-off for these calls is given here.

Assays:
MCF7 = assay: Antiproliferative activity against human MCF7 cells assessed as cell growth inhibition by MTT assay; assay type: functional
[1] = molecular target: T1, Poly [ADP-ribose] polymerase 1 (Homo sapiens, UniProt P09874); assay: Inhibition of PARP1 (unknown origin); conditions: for pIC50: read-out: IC50
K562 = assay: Antiproliferative activity against human K562 cells assessed as cell growth inhibition by MTT assay; assay type: functional
Histone deacetylase 1 = Histone deacetylase 1 (Homo sapiens, UniProt Q13547); assay: Inhibition of HDAC1 (unknown origin); conditions: for pIC50: read-out: IC50
MDA-MB-231 = assay: Antiproliferative activity against human MDA-MB-231 cells assessed as cell growth inhibition by MTT assay; assay type: functional
[2] = molecular target: T1, Poly [ADP-ribose] polymerase 1; assay: Inhibition of PARP1 (unknown origin) at 20 nM relative to control
[3] = molecular target: T1, Poly [ADP-ribose] polymerase 1; assay: Potency index, ratio of olaparib IC50 to test compound IC50 for inhibition of PARP1 (unknown origin)

T1 sequence (P09874 whole entry): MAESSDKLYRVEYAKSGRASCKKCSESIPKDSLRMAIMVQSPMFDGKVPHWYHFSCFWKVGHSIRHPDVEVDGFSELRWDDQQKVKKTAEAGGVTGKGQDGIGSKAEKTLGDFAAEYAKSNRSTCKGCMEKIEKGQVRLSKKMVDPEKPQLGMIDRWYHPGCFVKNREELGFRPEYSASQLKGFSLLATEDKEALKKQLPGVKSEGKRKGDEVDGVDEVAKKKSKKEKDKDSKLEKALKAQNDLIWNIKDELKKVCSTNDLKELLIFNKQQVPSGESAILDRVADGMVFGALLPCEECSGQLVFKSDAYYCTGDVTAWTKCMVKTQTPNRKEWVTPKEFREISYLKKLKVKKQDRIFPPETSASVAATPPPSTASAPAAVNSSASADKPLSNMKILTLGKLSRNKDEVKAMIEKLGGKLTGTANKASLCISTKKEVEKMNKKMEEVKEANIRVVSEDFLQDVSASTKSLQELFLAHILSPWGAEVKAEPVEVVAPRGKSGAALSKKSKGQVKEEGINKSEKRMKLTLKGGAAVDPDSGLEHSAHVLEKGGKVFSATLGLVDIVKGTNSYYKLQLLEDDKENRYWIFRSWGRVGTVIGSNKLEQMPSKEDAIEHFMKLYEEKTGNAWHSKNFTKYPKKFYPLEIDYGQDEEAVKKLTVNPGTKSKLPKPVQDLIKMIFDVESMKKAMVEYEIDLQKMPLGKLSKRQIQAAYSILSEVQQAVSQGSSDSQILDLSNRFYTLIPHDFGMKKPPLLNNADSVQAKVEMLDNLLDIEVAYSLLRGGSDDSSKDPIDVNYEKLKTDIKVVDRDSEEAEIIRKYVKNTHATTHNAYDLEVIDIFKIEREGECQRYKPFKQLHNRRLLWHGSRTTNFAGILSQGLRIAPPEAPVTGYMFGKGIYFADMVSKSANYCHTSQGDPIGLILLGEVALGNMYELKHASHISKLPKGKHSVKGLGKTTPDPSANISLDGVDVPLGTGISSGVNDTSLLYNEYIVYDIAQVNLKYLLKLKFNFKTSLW
Chain of Histone deacetylase 1 (Q13547 whole entry): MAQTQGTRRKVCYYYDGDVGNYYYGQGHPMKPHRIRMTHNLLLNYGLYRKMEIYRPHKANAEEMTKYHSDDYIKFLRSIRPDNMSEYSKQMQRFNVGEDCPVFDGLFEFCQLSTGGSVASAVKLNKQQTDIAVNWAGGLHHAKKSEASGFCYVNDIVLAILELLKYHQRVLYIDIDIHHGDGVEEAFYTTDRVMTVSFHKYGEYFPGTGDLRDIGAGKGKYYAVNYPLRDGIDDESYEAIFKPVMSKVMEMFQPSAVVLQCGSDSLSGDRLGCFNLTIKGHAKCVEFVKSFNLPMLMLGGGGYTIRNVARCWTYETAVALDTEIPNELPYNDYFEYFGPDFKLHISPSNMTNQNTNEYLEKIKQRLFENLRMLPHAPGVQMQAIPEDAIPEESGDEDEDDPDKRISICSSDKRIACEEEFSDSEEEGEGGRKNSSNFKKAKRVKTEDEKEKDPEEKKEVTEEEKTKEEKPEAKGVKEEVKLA

GI50 (MCF7) | pIC50 [1] | GI50 (K562) | pIC50 (Histone deacetylase 1) | GI50 (MDA-MB-231) [µM] | inhibition [2] [%] | IC50 (Histone deacetylase 1) | IC50 [1] | Ratio IC50 [3] | SMILES
11.1 µM | – | 2.92 µM | 6.47 | 50.5 | 41.3 | – | – | – | Nc1ccccc1NC(=O)[C@H]1CC[C@H](CNC(=O)c2cc(Cc3n[nH]c(=O)c4ccccc34)ccc2F)CC1
inactive | – | inactive | 6.04 | 31.3 | 42.4 | – | – | – | Nc1ccc(F)cc1NC(=O)CCCCNC(=O)c1cc(Cc2n[nH]c(=O)c3ccccc23)ccc1F
11.5 µM | – | 2.21 µM | 6.47 | 78.7 | 22.1 | – | – | – | Nc1cc(F)ccc1NC(=O)c1ccc(CNC(=O)c2cc(Cc3n[nH]c(=O)c4ccccc34)ccc2F)cc1
inactive | – | 62.4 µM | 6.13 | 61.6 | 39.4 | – | – | – | Nc1ccccc1NC(=O)CCCCNC(=O)c1cc(Cc2n[nH]c(=O)c3ccccc23)ccc1F
1.91 µM | – | 0.408 µM | 6.85 | 59.3 | 37.4 | – | – | – | Nc1ccccc1NC(=O)c1ccc(CNC(=O)c2cc(Cc3n[nH]c(=O)c4ccccc34)ccc2F)cc1
inactive | 8.37 | 5.62 µM | 6.47 | 4.35 | – | – | – | – | Nc1ccccc1NC(=O)CCCCCNC(=O)c1cc(Cc2n[nH]c(=O)c3ccccc23)ccc1F
inactive | 8.71 | inactive | 6.09 | 2.31 | – | – | – | 2 | Nc1ccccc1NC(=O)C1CCN(C(=O)c2cc(Cc3n[nH]c(=O)c4ccccc34)ccc2F)CC1

More lines, now with the values behind:

SMILES | GI50 (MCF7) | pIC50 [1] | GI50 (K562) | pIC50 (Histone deacetylase 1) | GI50 (MDA-MB-231) [µM] | inhibition [2] [%] | IC50 (Histone deacetylase 1) | IC50 [1] | Ratio IC50 [3]
Nc1ccc(F)cc1NC(=O)C1CCN(C(=O)c2cc(Cc3n[nH]c(=O)c4ccccc34)ccc2F)CC1 | inactive | 8.74 | inactive | 6.02 | 1.03 | – | – | – | –
Nc1ccc(F)cc1NC(=O)CCCCCNC(=O)c1cc(Cc2n[nH]c(=O)c3ccccc23)ccc1F | inactive | – | 8.13 µM | 6.28 | 13.9 | 65.9 | – | – | –
Nc1cc(F)ccc1NC(=O)CCCCNC(=O)c1cc(Cc2n[nH]c(=O)c3ccccc23)ccc1F | inactive | – | – | 6.00 | 25.4 | 64.7 | – | – | –
O=C(c1cc(Cc2n[nH]c(=O)c3ccccc23)ccc1F)N1CCN(C(=O)C2CC2)CC1 [OLAPARIB] | 13.2 µM | – | inactive | – | 4.23 | – | Not Active | – | –
Nc1cc(F)ccc1NC(=O)C1CCN(C(=O)c2cc(Cc3n[nH]c(=O)c4ccccc34)ccc2F)CC1 | inactive | 8.59 | inactive | 6.03 | 4.49 | – | – | – | –
Nc1ccc(F)cc1NC(=O)c1ccc(CNC(=O)/C=C/c2cccnc2)cc1 | 1.43 µM | – | 0.45 µM | – | 2.88 | – | – | Not Active | –
Nc1cc(F)ccc1NC(=O)[C@H]1CC[C@H](CNC(=O)c2cc(Cc3n[nH]c(=O)c4ccccc34)ccc2F)CC1 | inactive | – | 6.61 µM | 6.05 | 49.2 | 49.7 | – | – | –
Nc1cc(F)ccc1NC(=O)CCCCCNC(=O)c1cc(Cc2n[nH]c(=O)c3ccccc23)ccc1F | inactive | – | 14.7 µM | 6.09 | 40.5 | 46.2 | – | – | –
